One data set has as its system ATF4. Put plainly: Induction of ATF4 expression in cells (immunoblot). The conditions noted are these: HeLa cells, 10 μM. The class given is cell-based, human. As to the method: (§1) Cells (90,000 cells/ml) were plated in a 24-well plate and treated as indicated. At the end of treatment cells were lysed in 150 μl Laemmli Buffer. Lysates were boiled at 95° C. for 5 minutes, sonicated and resolved on 4-12% Bolt Bis-Tris Plus Gels (Thermo Fisher Scientific). Proteins were transferred to the nitrocellulose membrane using the iBlot 2 system (Thermo Fisher Scientific) and analysed using the following antibodies: e-IF2α-P (44-728G, Thermo Fisher Scientific, 1:1000), e-IF2α (ab5369, Abcam, 1:1000), tubulin (T5168, Sigma-Aldrich, 1:4000), BiP (610978, BD Biosciences Pharmingen, 1:1000), ATF4 (sc-200, Santa Cruz Biotechnology, 1:500), Ppp1r15a (10449-1-AP, Proteintech, 1:1000) and Ppp1r15b (14634-1-AP, Proteintech, 1:1000). Proteins were visualized using ECL Prime (GE Healthcare).
(In general: In western blotting, separated proteins are transferred to a membrane and probed.)

Data set [1] deals with HeLa cells. Put plainly: Translation rates by 35S-methionine labelling in HeLa cells. The conditions noted are these: for protein synthesis / translation rates: basal conditions, 10 μM. The class given is cell-based, human. The method, then:
(§2) Cells (90,000 cells/ml) were plated in 12-well plates, treated as indicated, labelled with 100 μCi/ml ^35S-methionine (Hartmann Analytic) for 10 minutes at 37° C., washed with ice-cold PBS and lysed in 120 μl Laemmli Buffer. Lysates were boiled at 95° C. for 5 minutes, sonicated and resolved on 4-12% Bolt Bis-Tris Plus Gels (Thermo Fisher Scientific). Gels were then stained with InstantBlue (Expedeon) and analyzed by phosphorimaging.

The subject of data set [2] is dorsal root ganglia culture (DRG) from PMP22 mutant mice. Put plainly: Myelination in DRG cultures from PMP22 mutant mice. The class given is cell-based, mouse. The conditions noted are these: 5 nM compound, 14 days. The method, then: Dorsal root ganglia (DRG) dissected from wild-type or Pmp22Tr-J (PMP22mutant) (Henry et al., Neuropathol. Exp. Neurol., 42, 688-706, 1983) embryo at 13.5 or […] (E13.5) were cultured on collagen coated coverslips in neurobasal media supplemented with 4 g/l glucose, 2 mM L-glutamine, 2% B27 supplement and 50 ng/ml neuronal growth factor (NGF) for 7 days. To differentiate Schwann cells and induce myelination, the cultured DRGs were then maintained in C-media (MEM media supplemented with 4 g/l glucose, 2 mM L-glutamine, 10% FCS, 50 ng/ml NGF). The C-media was replaced every other day with freshly added 50 μg/ml ascorbic acid ±5 nM of compound of Example I and cultured for 14 days for myelination by the Schwann cells. The cultured DRGs were then fixed in 4% paraformaldehyde and immunostained with MBP (Rat Myelin basic protein, 1/250 dilution, ab73498).

The subject of another data set is MEFs. Put plainly: Translation rates by 35S-methionine labelling in r15a mut/mut or r15b mut/mut MEFs. The format is cell-based, mouse. As to the method: HeLa cells were maintained in Dulbecco's Modified Eagle's Media (DMEM) supplemented with penicillin, streptomycin, glutamine and 10% fetal bovine serum (FBS). Ppp1r15a −/− and Ppp1r15b −/− MEF cells were maintained in DMEM supplemented with penicillin, streptomycin, glutamine, 55 μM β-mercaptoethanol, 1X non-essential amino acids (Sigma) and 10% FBS.
as §2

The nature of data set [3]: Toxicity and weight in mice treated for 2 weeks. The format is in vivo, mouse. The arrangement: toxicity / clinical signs: dose or concentration left out as unconfirmed. The method, then: For studying the effect of a compound of Example 1 on weight, C3H/B6 mice were gavaged orally once a day with compounds of Example 1 and mice weight was recorded daily for 2 weeks.
Mice were treated with Example 1 and monitored closely to detect any clinical signs. […] This establishes that PPP1R15B inhibition is not toxic. This was surprising and unanticipated as prior to this study one would have speculated that PPP1R15B inhibitors would be so deleterious that they would have no therapeutic potential.

For data set [4], the system named is HeLa cells. Put plainly: Cytoprotection from tunicamycin ER stress (WST-8 cell viability). The format is cell-based, human. The conditions noted are these: Tunicamycin 2.5 ug/ml, 0.2-5 μM compound. The method, then:
Cells were plated in 24-well plates at a density of 15,000 (HeLa) or 12,000 cells/ml (MEFs) 24 hours prior to treatment. ER stress was elicited by addition of fresh media containing 2.5 μg/ml tunicamycin (Sigma-Aldrich). Compounds of Example 1 were dissolved in DMSO and added as indicated. DMSO was used as a mock treatment. Cell viability was assessed by measuring the reduction of WST-8 [2-(2-methoxy-4-nitrophenyl)-3-(4-nitrophenyl)-5-(2,4-disulfophenyl)-2H-tetrazolium] into formazan using Cell viability Counting Kit-8 (Dojindo) according to the supplier's recommendation, 48 hours after tunicamycin treatment.
Cells where stressed with Tunicamycin (2.5 ug/ml) in the presence of 0.2-5 μM of a compound of Example 1. Cell viability was measured 3 days after treatment.
Cytoprotection against ER stress can be measured by a suitable assay. In this instance, cytoprotection was measured in HeLa cells in which ER stress was elicited by the addition of media containing tunicamycin, a drug that blocks N-glycosylation, thereby preventing protein folding and inducing the unfolded protein response. Cell viability was then detected in the presence and absence of a compound of Example 1 after a set period of time, by measuring the reduction of WST-8 into formazan using the standard cell viability kit Cell Viability Counting Kit-8 from Dojindo. […]

Data set [5] can be described thus: Tissue distribution in mice after oral gavage. The class given is in vivo, mouse. As to the method:
Pharmacokinetics studies were performed by XenoGesis. TST3 was administrated orally in C57BL/6J males. Plasma samples were prepared by protein precipitation with methanol containing internal standards. Tissues were weighed and prepared by homogenisation (1:3 in phosphate buffered saline) and protein precipitated with methanol containing internal standard. Following the addition of methanol, plasma and tissue samples were placed at −20° C. for 1 hour (or overnight) to allow proteins to precipitate. The samples were then centrifuged at 2,500×g (3,400 rpm) for 20 minutes at 4° C. The supernatants were analysed by LC-MS/MS.

In another data set the test system is PPP1R15A. Put plainly: Induction of PPP1R15A expression in cells (immunoblot). The format is cell-based, human. The conditions noted are these: absence of stress. The method, then: For immunoblots, HeLa cells (80,000 cells/ml) were plated in 12-well plates 24 hours before each experiment. Immediately after the indicated treatments, cells were lysed in 75 μl Laemmli Buffer, boiled at 95° C. for 5 minutes and sonicated. Proteins were separated and analysed as described (Tsaytler et al., Science, 332, 91-94, 2011) with the following antibodies: phospho-elf2α [pS52] and PPP1R15A/GADD34 (10449-1-AP; ProteinTech Group, 1/1000 dilution).
as §1

Entries after “also recorded” stand apart in the source; their conditions may differ.

Turning to `[H]/N=C(\N)NN=Cc1cccc(Cl)c1Cl` [Example 1, (E)-2-(2,3-dichlorobenzylidene)hydrazine-1-carboximidamide], in the data set with ATF4, the “expression of ATF4 in cells” value is on record as “induced expression”. Moreover, the “protein synthesis in the presence of GBZ” value in the data set on HeLa cells [1] (TST3+/- GBZ at 10 μM) is “persistently inhibits protein synthesis; also recorded: rendered persistent”. Also, in the data set on HeLa cells [1] (listed as TST3), the “protein synthesis / translation rates” value is “transiently reduces protein synthesis; also recorded: rapidly and transiently decreased”. Further, the “myelination (length of myelin internodes)” value in data set [2] is on record as “improved myelination; also recorded: increased the length of myelin internodes”. In addition, the “translation attenuation upon inactivation of R15A” value in the data set with MEFs is reported as “rendered persistent”. The “toxicity / clinical signs” value in data set [3] (once a day for 2 weeks) is reported as “undistinguishable from mice treated with placebo; also recorded: not toxic”. Also, the weight gain result in data set [3] (up to 10 mg/mg once a day for 2 weeks) is reported as “gained weight normally”. The “protection of cells from tunicamycin stress (cell viability)” value in the data set on HeLa cells [4] was “protects cells from cytotoxic ER stress”. In addition, the “tissue distribution (plasma, brain, spinal cord, pancreas, liver)” value in data set [5] is “good tissue distribution; also recorded: extensive tissue distribution”. In addition, the “expression of PPP1R15A (R15A) in cells” value was “induce PPP1R15A; also recorded: induces expression of R15A” in the data set with PPP1R15A and “induced expression” with PPP1R15A (listed as TST3).

Consider `N=C(N)N/N=C/c1c(Cl)cccc1Cl` [Guanabenz, reference compound], for which the “protein synthesis / translation rates” value in the data set with HeLa cells [1] is recorded as “did not affect”.

The values are drawn from patent publication US11364211B2, “Methods for selecting phosphatase selective and non-selective phosphatase inhibitors” (MEDICAL RESEARCH COUNCIL, priority 2015, dated 2022).
